{"source": "patent US6172112A", "about": "“Retinoids and use thereof” (priority 1999, dated 2001)", "key": {"[1]": {"conditions": "cited from earlier work"}, "NB4 cells": {"system": "NB4 cells", "experiment": "retinoid metabolism in NB4 cells", "assay_type": "in vitro ADME"}, "RARα/RXRα": {"target": "T1, RARα/RXRα (Homo sapiens, UniProt P10276+P19793)", "T1 sequence (P10276 1-462)": "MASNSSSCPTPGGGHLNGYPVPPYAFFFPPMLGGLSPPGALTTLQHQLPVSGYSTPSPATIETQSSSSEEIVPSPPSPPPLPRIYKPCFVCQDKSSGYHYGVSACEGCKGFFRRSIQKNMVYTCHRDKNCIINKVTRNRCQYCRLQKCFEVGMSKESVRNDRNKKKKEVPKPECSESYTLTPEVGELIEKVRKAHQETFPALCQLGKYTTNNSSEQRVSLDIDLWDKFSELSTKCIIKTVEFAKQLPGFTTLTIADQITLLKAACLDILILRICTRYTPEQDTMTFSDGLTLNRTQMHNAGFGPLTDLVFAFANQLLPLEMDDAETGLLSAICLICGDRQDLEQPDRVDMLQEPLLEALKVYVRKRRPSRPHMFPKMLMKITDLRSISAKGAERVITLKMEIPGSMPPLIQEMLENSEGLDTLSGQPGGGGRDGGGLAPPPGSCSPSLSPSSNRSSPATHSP", "T1 sequence (P19793 1-462)": "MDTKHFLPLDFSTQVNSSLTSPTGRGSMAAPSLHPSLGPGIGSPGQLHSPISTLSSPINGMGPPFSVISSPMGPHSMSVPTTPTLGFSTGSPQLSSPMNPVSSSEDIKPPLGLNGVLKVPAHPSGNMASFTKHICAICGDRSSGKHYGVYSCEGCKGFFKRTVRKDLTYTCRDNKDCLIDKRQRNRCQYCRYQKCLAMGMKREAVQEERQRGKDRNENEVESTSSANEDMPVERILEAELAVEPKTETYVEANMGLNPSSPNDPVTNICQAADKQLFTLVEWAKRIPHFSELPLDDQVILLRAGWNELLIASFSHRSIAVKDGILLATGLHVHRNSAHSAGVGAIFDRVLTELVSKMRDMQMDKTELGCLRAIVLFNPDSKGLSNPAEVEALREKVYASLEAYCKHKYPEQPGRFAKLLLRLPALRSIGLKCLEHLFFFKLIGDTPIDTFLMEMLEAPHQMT", "experiment": "cell-based", "experimental": "(§1) These assays were performed in CV-1 cells with the RAR or RXR gene and the chloramphenicol acetyltransferase (CAT) reporter gene containing TREpal with a thymidine kinase promoter [(TREpal)2 -tk-CAT]. Twenty-four hours after transfection, cells were treated with a single dose of retinoid and the cell extracts were assayed for b-galactosidase and CAT activity. The antagonistic effects of UAB30 retinoids on the transcription of RAR-α were also determined in CV-1 cells. The methods are nearly identical to those used to perform transcriptional assays. These studies utilized the CAT reporter gene [(TREpal)2 -tk-CAT]. […] After 24 hours, cells were harvested and the transcriptional effects were measured in relative CAT activity, after correction with β-galactosidase activity for transfection efficiency. […] Experiments were performed in triplicate and the data were averaged."}, "mouse skin papilloma [2]": {"system": "mouse skin papilloma", "experiment": "mouse skin antipapilloma assay", "conditions": "45.9 nmol dose", "procedure": "The mouse skin antipapilloma assay measured the ED50 values for retinoid tumor inhibition on the dorsal skin of mice. The inhibition of mouse skin papilloma by retinoids was performed according to a modification of the procedure developed by Verma and Boutwell (14) as reported previously by Muccio et al. (8).\nThe UAB30 retinoids were evaluated next for their activity in preventing the chemical induction of papillomas on mouse skin (14)."}, "JMML cells": {"system": "JMML cells", "experiment": "inhibition of JMML spontaneous CFU-GM colony formation", "conditions": "Homo sapiens", "procedure": "Mononuclear cells were separated by density gradient centrifugation, washed, and frozen in aliquots. […] No growth factors or other exogenous stimuli were added to the cultures. UAB retinoids and retinoic acid isomers were dissolved in either 100% ethanol or DMSO. Appropriate dilutions were made, and controls using the respective ethanol or DMSO concentration were set up in parallel. Varying doses of retinoids were added only once, 24 hours after initiation of the soft agar assays, by pipetting the retinoid solution on top of the soft agar and allowing the solution to enter the agar and interact with the cells by diffusion. The cultures were incubated for 14 days at 37° C. in a humidified atmosphere with 5% CO2."}, "HL-60 cells": {"system": "HL-60 cells", "experiment": "retinoid induction of differentiation of HL-60 cells (NBT)", "assay_type": "cell-based", "conditions": "Homo sapiens, HL-60, 96 h; 4-day induction of differentiation; read-out: ED50 (nM) HL-60", "experimental": "Human leukemia cell line HL-60 and NB4 were used for measuring the ability of retinoids to induce terminal differentiation. Both cell lines are predominantly promyelocytes and are induced by retinoic acid to mature to cells with many characteristics of mature granulocytes. The induction of this differentiation is the basis for assaying one of the biological activities of retinoic acid analogues. For the differentiation assay, HL-60 or NB4 cells were grown in nutrient medium with fetal bovine serum as detailed by Breitman (15).\nThe percentage of cells that gained this marker was measured microscopically. The percentage of positive cells was then plotted as a function of the retinoid concentration to determine ED50 and ED30 values used in the formation of isoboles."}, "RARγ [3]": {"target": "T2, RARγ (Homo sapiens, UniProt P13631)", "T2 sequence (P13631 1-454)": "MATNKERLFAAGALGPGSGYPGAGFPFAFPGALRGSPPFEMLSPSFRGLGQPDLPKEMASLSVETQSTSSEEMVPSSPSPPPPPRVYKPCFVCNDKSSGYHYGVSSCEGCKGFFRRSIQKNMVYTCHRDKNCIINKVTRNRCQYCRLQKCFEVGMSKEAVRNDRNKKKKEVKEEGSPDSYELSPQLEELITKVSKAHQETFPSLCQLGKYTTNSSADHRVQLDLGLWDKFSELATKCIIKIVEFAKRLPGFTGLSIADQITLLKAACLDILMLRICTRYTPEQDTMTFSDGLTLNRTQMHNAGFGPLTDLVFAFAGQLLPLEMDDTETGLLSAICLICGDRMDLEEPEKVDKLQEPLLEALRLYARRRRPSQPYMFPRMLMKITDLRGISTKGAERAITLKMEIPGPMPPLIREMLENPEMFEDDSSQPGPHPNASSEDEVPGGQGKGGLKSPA", "experiment": "nuclear receptor radiolabeled competition binding, RARγ", "experimental": "(§2) For active retinoids, IC50 values were determined by titration with varying concentrations of UAB retinoids."}, "RARγ [4]": {"target": "T2, RARγ", "experiment": "RARγ-mediated transcriptional activation in CV-1 cells", "assay_type": "cell-based", "experimental": "as §1\nUAB30 isomers were evaluated in assays which measures their functional activity within cells to induce RARα-, RARβ-, and RARγ-mediated transcriptional activity. CV-1 cells were transiently transfected with DNA plasmid from the appropriate RAR subtype and (TREpal)2 -tk-CAT (9, 19)."}, "mouse skin papilloma [5]": {"system": "mouse skin papilloma", "conditions": "ref (8); cited from earlier work"}, "RARα": {"target": "T3, RARα (Homo sapiens, UniProt P10276)", "T3 sequence (P10276 1-462)": "T1 sequence (P10276 1-462)", "experiment": "nuclear receptor radiolabeled competition binding, RARα", "experimental": "as §2"}}, "note": "pEC50: −log10 of the molar value. Like-named read-outs stand apart in the source and are kept apart here.", "data": [{"smiles": "CCC1=C(C(C)C)/C(=C/C(C)=C/C=C/C(C)=C/C(=O)O)CCC1", "note": "[(all-E)-UAB8]", "values": [{"measurement": "in vivo toxicity", "setting": "[1]", "result": "less toxic than ATRA"}, {"measurement": "metabolism / metabolic stability", "setting": "NB4 cells", "result": "metabolized at the same rate as ATRA"}, {"measurement": "pEC50", "setting": "RARα/RXRα", "result": 7.17}, {"measurement": "prevention of papilloma (tumor) formation", "setting": "mouse skin papilloma [2]", "result": 99, "unit": "%"}, {"measurement": "inhibition at 1 µM", "setting": "JMML cells; read-out: normalized percent inhibition of CFU-GM colony growth, patient J43 (%)", "result": 98, "unit": "%"}, {"measurement": "inhibition at 1 µM", "setting": "JMML cells; read-out: normalized percent inhibition of CFU-GM colony growth, patient J84 (%)", "result": 103, "unit": "%"}, {"measurement": "EC50", "setting": "HL-60 cells", "result": "> 10000", "unit": "nM"}, {"measurement": "IC50", "setting": "RARγ [3]", "result": 10, "unit": "nM"}, {"measurement": "EC50", "setting": "RARγ [4]", "result": 2, "unit": "nM"}, {"measurement": "ED50 skin antipapilloma assay", "setting": "mouse skin papilloma [5]", "result": 2.5, "unit": "nmol"}, {"measurement": "IC50", "setting": "RARα", "result": 14, "unit": "nM"}]}]}
